According to paper PMC3130141 (Archives of Drug Information, 2011):

Test system: Japanese patients with advanced solid tumors
Assay: Adverse events by CTCAE version 3.0, Phase I dose-escalation study
Type: in vivo, human
[1] = all doses 10-25 mg, 18 patients

With `Cc1ccc(C(=O)N(CCCN)C(c2nc3snc(C)c3c(=O)n2Cc2ccccc2)C(C)C)cc1` (stereo not shown) [AZD4877] the “Anorexia, patients with CTCAE grade ≥3 event” value (“Anorexia, patients” below) (10 mg (N = 3)) was 0 N (%), the “Any grade ≥3 event, patients with CTCAE grade ≥3 event” value (“Any grade ≥3 event, patients” below) (10 mg (N = 3)) was 0 N (%) and the “Constipation, CTCAE any grade, patients with AEs” value (from here on “Constipation, CTCAE any grade”) (10 mg (N = 3)) was 1 (33) N (%). The “Constipation, patients with CTCAE grade ≥3 event” value (“Constipation, patients” below) (10 mg (N = 3)) was 0 N (%), the “Diarrhea, CTCAE any grade, patients with AEs” value (“Diarrhea, CTCAE any grade” below) (10 mg (N = 3)) was 2 (67) N (%) and the “Dizziness, CTCAE any grade, patients with AEs” value (shortened to “Dizziness, CTCAE any grade”) (10 mg (N = 3)) was 2 (67) N (%). For the same compound, the “Fatigue, CTCAE any grade, patients with AEs” value (from here on “Fatigue, CTCAE any grade”) (10 mg (N = 3)) was 1 (33) N (%), the “Fatigue, patients with CTCAE grade ≥3 event” value (shortened to “Fatigue, patients”) (10 mg (N = 3)) was 0 N (%) and the “Febrile neutropenia, patients with CTCAE grade ≥3 event” value (“Febrile neutropenia, patients” for short) (10 mg (N = 3)) was 0 N (%). For the same compound, the “Insomnia, CTCAE any grade, patients with AEs” value (“Insomnia, CTCAE any grade” below) (10 mg (N = 3)) was 1 (33) N (%), the “Nasopharyngitis, CTCAE any grade, patients with AEs” value (shortened to “Nasopharyngitis, CTCAE any grade”) (10 mg (N = 3)) was 0 N (%) and the “Nausea, CTCAE any grade, patients with AEs” value (“Nausea, CTCAE any grade” below) (10 mg (N = 3)) was 2 (67) N (%). For the same compound, the “Neutropenia, patients with CTCAE grade ≥3 event” value (10 mg (N = 3)) was 0 N (%), the “Pyrexia, CTCAE any grade, patients with AEs” value (“Pyrexia, CTCAE any grade” for short) (10 mg (N = 3)) was 0 N (%) and the “Rash, CTCAE any grade, patients with AEs” value (10 mg (N = 3)) was 0 N (%). For the same compound, the “Urinary tract infection, patients with CTCAE grade ≥3 event” value (shortened to “Urinary tract infection, patients”) (10 mg (N = 3)) was 0 N (%), the “Anorexia, patients” value (15 mg (N = 3)) was 0 N (%) and the “Any grade ≥3 event, patients” value (15 mg (N = 3)) was 0 N (%). The “Constipation, CTCAE any grade” value (15 mg (N = 3)) was 0 N (%), the “Constipation, patients” value (15 mg (N = 3)) was 0 N (%) and the “Diarrhea, CTCAE any grade” value (15 mg (N = 3)) was 1 (33) N (%). The “Dizziness, CTCAE any grade” value (15 mg (N = 3)) was 0 N (%), the “Fatigue, CTCAE any grade” value (15 mg (N = 3)) was 1 (33) N (%) and the “Fatigue, patients” value (15 mg (N = 3)) was 0 N (%). For the same compound, the “Febrile neutropenia, patients” value (15 mg (N = 3)) was 0 N (%), the “Insomnia, CTCAE any grade” value (15 mg (N = 3)) was 0 N (%) and the “Nasopharyngitis, CTCAE any grade” value (15 mg (N = 3)) was 0 N (%). For the same compound, the “Nausea, CTCAE any grade” value (15 mg (N = 3)) was 1 (33) N (%), the “Neutropenia, patients with CTCAE grade ≥3 event” value (15 mg (N = 3)) was 0 N (%) and the “Pyrexia, CTCAE any grade” value (15 mg (N = 3)) was 3 (100) N (%). For the same compound, the “Rash, CTCAE any grade, patients with AEs” value (15 mg (N = 3)) was 3 (100) N (%), the “Urinary tract infection, patients” value (15 mg (N = 3)) was 0 N (%) and the “Anorexia, patients” value (20 mg (N = 6)) was 0 N (%). The “Any grade ≥3 event, patients” value (20 mg (N = 6)) was 1 (17) N (%), the “Constipation, CTCAE any grade” value (20 mg (N = 6)) was 1 (17) N (%) and the “Constipation, patients” value (20 mg (N = 6)) was 0 N (%). The “Diarrhea, CTCAE any grade” value (20 mg (N = 6)) was 0 N (%), the “Dizziness, CTCAE any grade” value (20 mg (N = 6)) was 3 (50) N (%) and the “Fatigue, CTCAE any grade” value (20 mg (N = 6)) was 2 (33) N (%). The “Fatigue, patients” value (20 mg (N = 6)) was 0 N (%), the “Febrile neutropenia, patients” value (20 mg (N = 6)) was 0 N (%) and the “Insomnia, CTCAE any grade” value (20 mg (N = 6)) was 2 (33) N (%). The “Nasopharyngitis, CTCAE any grade” value (20 mg (N = 6)) was 2 (33) N (%), the “Nausea, CTCAE any grade” value (20 mg (N = 6)) was 1 (17) N (%) and the “Neutropenia, patients with CTCAE grade ≥3 event” value (20 mg (N = 6)) was 1 (17) N (%). The “Pyrexia, CTCAE any grade” value (20 mg (N = 6)) was 2 (33) N (%), the “Rash, CTCAE any grade, patients with AEs” value (20 mg (N = 6)) was 2 (33) N (%) and the “Urinary tract infection, patients” value (20 mg (N = 6)) was 0 N (%). The “Patients who withdrew from the study due to an AE” value (20 mg dose cohort, grade 2 cystitis) was “one patient”, the “Anorexia, patients” value (25 mg (N = 6)) was 1 (17) N (%) and the “Any grade ≥3 event, patients” value (25 mg (N = 6)) was 2 (33) N (%). For the same compound, the “Constipation, CTCAE any grade” value (25 mg (N = 6)) was 2 (33) N (%), the “Constipation, patients” value (25 mg (N = 6)) was 1 (17) N (%) and the “Diarrhea, CTCAE any grade” value (25 mg (N = 6)) was 2 (33) N (%). For the same compound, the “Dizziness, CTCAE any grade” value (25 mg (N = 6)) was 0 N (%), the “Fatigue, CTCAE any grade” value (25 mg (N = 6)) was 3 (50) N (%) and the “Fatigue, patients” value (25 mg (N = 6)) was 1 (17) N (%). For the same compound, the “Febrile neutropenia, patients” value (25 mg (N = 6)) was 1 (17) N (%), the “Insomnia, CTCAE any grade” value (25 mg (N = 6)) was 1 (17) N (%) and the “Nasopharyngitis, CTCAE any grade” value (25 mg (N = 6)) was 2 (33) N (%). For the same compound, the “Nausea, CTCAE any grade” value (25 mg (N = 6)) was 3 (50) N (%), the “Neutropenia, patients with CTCAE grade ≥3 event” value (25 mg (N = 6)) was 0 N (%) and the “Pyrexia, CTCAE any grade” value (25 mg (N = 6)) was 1 (17) N (%). The “Rash, CTCAE any grade, patients with AEs” value (25 mg (N = 6)) was 0 N (%), the “Urinary tract infection, patients” value (25 mg (N = 6)) was 1 (17) N (%) and the “Anorexia, patients” value (Total, all doses (N = 18)) was 1 (6) N (%). The “Any grade ≥3 event, patients” value (Total, all doses (N = 18)) was 3 (17) N (%), the “Constipation, CTCAE any grade” value (Total, all doses (N = 18)) was 4 (22) N (%) and the “Constipation, patients” value (Total, all doses (N = 18)) was 1 (6) N (%). For the same compound, the “Diarrhea, CTCAE any grade” value (Total, all doses (N = 18)) was 5 (28) N (%), the “Dizziness, CTCAE any grade” value (Total, all doses (N = 18)) was 5 (28) N (%) and the “Fatigue, CTCAE any grade” value (Total, all doses (N = 18)) was 7 (39) N (%). For the same compound, the “Fatigue, patients” value (Total, all doses (N = 18)) was 1 (6) N (%), the “Febrile neutropenia, patients” value (Total, all doses (N = 18)) was 1 (6) N (%) and the “Insomnia, CTCAE any grade” value (Total, all doses (N = 18)) was 4 (22) N (%). The “Nasopharyngitis, CTCAE any grade” value (Total, all doses (N = 18)) was 4 (22) N (%), the “Nausea, CTCAE any grade” value (Total, all doses (N = 18)) was 7 (39) N (%) and the “Neutropenia, patients with CTCAE grade ≥3 event” value (Total, all doses (N = 18)) was 1 (6) N (%). The “Pyrexia, CTCAE any grade” value (Total, all doses (N = 18)) was 6 (33) N (%), the “Rash, CTCAE any grade, patients with AEs” value (Total, all doses (N = 18)) was 5 (28) N (%) and the “Urinary tract infection, patients” value (Total, all doses (N = 18)) was 1 (6) N (%). For the same compound, the “Deaths during the study” value (all doses 10-25 mg) was “no deaths”, the “Patients reporting fatigue (AE)” value [1] was 39% and the “Patients reporting nausea (AE)” value [1] was 39%. The “Patients reporting pyrexia (AE)” value [1] was 33%, the “Patients who experienced at least one AE” value [1] was “All patients” and the “Patients who experienced CTCAE grade ≥3 events” value (all doses, 18 patients, one in 20 mg, two in 25 mg cohort) was “Three”. The Tolerability (doses up to 25 mg weekly) was “generally well tolerated”.
